{"source": "patent US12491185B2", "about": "“Inhibitors of mPTP” (NRG Therapeutics Ltd, priority 2023, dated 2025)", "key": {"mPTP [1]": {"test_system": "mPTP", "test": "mPTP activity (Ca2+ retention) assay in isolated rat liver mitochondria", "type": "biochemical", "conditions": "for mPTP Rat liver pIC50: examples tested by different contract research organisations, believed comparable", "summary_of_the_method": "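pIC50 was taken from Fluo5N fluorescence at 10 min after a 75 μM CaCl2 bolus, scaled between DMSO (0%) and 5 μM cyclosporin A (100%). Compounds, ten half-log concentrations from 30 μM to 1 nM final, sat 10 min at RT with fresh female Sprague Dawley rat liver mitochondria energized by succinate plus rotenone.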"}, "mPTP [2]": {"test_system": "mPTP", "test": "Human platelet mitochondria assay (annexin V / PS exposure by flow cytometry)", "type": "cell-based", "conditions": "human blood platelets stimulated with thrombin/convulxin/calcium; % AnV-APC positive platelets", "method": "The mPTP cell based assay was performed using a transformative functional cell-(human blood platelets)-based assay by flow cytometry. Procoagulant platelets expose phosphatidylserine (PS), allowing a burst of thrombin generation that is responsible for producing an occlusive thrombus. While an increase in cytosolic Ca^2+ concentration is required for deriving platelets to become activated, a higher and more sustained increases in cytosolic Ca^2+ concentration is needed to commit some platelets to becoming procoagulant. Simulation of platelets results in the rapid influx of Ca^2+ across the platelet membrane. The Ca^2+ is then sequestered by mitochondria until the threshold for mPTP opening is reached, at which point the pore opens and the mitochondrial membrane potential is dissipated. mPTP opening and subsequent disruption in mitochondrial membrane potential leads to release of a high concentration of calcium stored in mitochondria into the platelet's cytosol (“supramaximal calcium signal” [1]) which is known to be a requisite initiating signal transduction leading to externalisation of procoagulant PS to the outer leaflet of platelets' plasma membrane. PS externalisation of stimulated platelets can be quantified in live platelets using standard annexin V (AnV) labelling by flow cytometry, enabling pharmacological characterisation of mPTP inhibitors.\nFresh human blood (9 ml) was collected from consenting donors into 3.2% sodium citrate. Acid citrate dextrose (85 mM tri-sodium citrate, 71 mM citric acid, and 111 mM D-glucose) was added (1:7 vol/vol) and platelet-rich plasma was separated by centrifugation (200 g, 10 minutes, ambient temperature, and without any brake). Platelets were pelleted by centrifugation (600 g, 10 minutes, ambient temperature) in the presence of prostaglandin E1 (100 nM) and apyrase (0.02 U/mL). Pelleted platelets were resuspended in N-2-hydroxyethylpiperazine-N′-2-ethanesulfonic acid (HEPES)-buffered saline supplemented with D-glucose (135 mM NaCl, 10 mM HEPES, 3 mM KCl, 1 mM MgCl2, 0.34 mM NaH2PO4, 5 mM D-glucose, 0.1% bovine serum albumin, pH 7.4.) and apyrase (0.02 U/mL). Platelets were rested for 30 minutes at 30° C. before treatment protocols were initiated.\nTest compounds were prepared from 10 mM stocks in DMSO. Serial dilution of search test compounds stamped in duplicate into a 96 well plate using Multidrop Pico 8 Digital Dispenser. Platelets were loaded and incubated for 30 min at room temperature. Then a stimulation mix containing Thrombin (FAC: 0.5 U/ml)/Convulxin (FAC: 0.05 μg/ml)/Calcium (FAC: 2 mM) added per well except control/not stimulated wells (This is low signal control). Some wells received no treatment but DMSO vehicle control and used as high signal controls (FAC of DMSO set at 0.1% in all wells of the 96 well plate). The reaction mix incubated for 10 min at room temperature. During last 2 min of stimulation AnV-APC was added to detect surface PS exposure. Samples ten fixed and fluorescence was detected by MACSQuant X flow cytometry and 10 000 platelet events were collected. The percentage of AnV-APC positive platelets was calculated for each well. IC50 for each compound was then calculated using a standard four parameter curve fit model (GraphPad Prism)."}, "mPTP [3]": {"test_system": "mPTP", "test": "mPTP activity assay in isolated rat brain mitochondria", "type": "biochemical", "conditions": "fluorescence at 10 min timepoint", "summary_of_the_method": "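Fresh brain mitochondria from female Sprague Dawley rats, digitonin-washed, in pH 7.4 mannitol/MOPS/KCl buffer with pyruvate, malate, ADP, oligomycin A and 2 μM Fluo5N. Preincubated with compounds 10 min at RT. Fluo5N fluorescence then read every 3 sec for 10 min on FLIPR Tetra.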"}}}
{"smiles": "O=C(NCC1(Cc2ccc(F)cc2F)CC(F)C1)c1nccc(=O)[nH]1", "note": "(single isomer, unassigned) [Example 247]", "values": [{"measurement": "mPTP Rat liver pIC50", "setting": "mPTP [1]", "result": 6.27}, {"measurement": "pIC50", "setting": "mPTP [2]", "result": 6.52}, {"measurement": "mPTP Rat brain pIC50", "setting": "mPTP [3]", "result": 7.26}]}
{"smiles": "CC(CNC(=O)c1nccc(=O)[nH]1)(Cc1ccc(F)cc1)C1CC1", "note": "(single isomer, unassigned) [Example 252]", "values": [{"measurement": "mPTP Rat liver pIC50", "setting": "mPTP [1]", "result": 6.82}, {"measurement": "pIC50", "setting": "mPTP [2]", "result": 7.42}, {"measurement": "mPTP Rat brain pIC50", "setting": "mPTP [3]", "result": 7.91}]}
{"smiles": "Cn1nc(C(=O)NCC2(Cc3ccc(F)cc3F)CCC2)[nH]c1=O", "note": "[Example 22, N-((1-(2,4-difluorobenzyl)cyclobutyl)methyl)-1-methyl-5-oxo-4,5-dihydro-1H-1,2,4-triazole-3-carboxamide]", "values": [{"measurement": "mPTP Rat liver pIC50", "setting": "mPTP [1]", "result": 6.79}, {"measurement": "pIC50", "setting": "mPTP [2]", "result": 7.14}, {"measurement": "mPTP Rat brain pIC50", "setting": "mPTP [3]", "result": 7.75}]}
{"smiles": "Cn1nc(C(=O)NC[C@H](Cc2ccc(F)cc2F)C2CC2)[nH]c1=O", "note": "[Example 96, (R)—N-(2-Cyclopropyl-3-(2,4-difluorophenyl)propyl)-1-methyl-5-oxo-4,5-dihydro-1H-1,2,4-triazole-3-carboxamide]", "values": [{"measurement": "mPTP Rat liver pIC50", "setting": "mPTP [1]", "result": 6.76}, {"measurement": "pIC50", "setting": "mPTP [2]", "result": 7.43}, {"measurement": "mPTP Rat brain pIC50", "setting": "mPTP [3]", "result": 7.91}]}
{"smiles": "Cn1nc(C(=O)NC[C@H](Cc2c(F)cc(F)cc2F)C2CC2)[nH]c1=O", "note": "[Example 117, (R)—N-(2-cyclopropyl-3-(2,4,6-trifluorophenyl)propyl)-1-methyl-5-oxo-4,5-dihydro-1H-1,2,4-triazole-3-carboxamide]", "values": [{"measurement": "mPTP Rat liver pIC50", "setting": "mPTP [1]", "result": 6.47}, {"measurement": "pIC50", "setting": "mPTP [2]", "result": 6.90}, {"measurement": "mPTP Rat brain pIC50", "setting": "mPTP [3]", "result": 7.56}]}
{"smiles": "Cn1nc(C(=O)NC[C@H](Cc2ccc(F)cc2)C2CC2)[nH]c1=O", "note": "[Example 190]", "values": [{"measurement": "mPTP pIC50 rat liver mitochondria", "setting": "mPTP [1]; Fluo5N fluorescence at 10 min after 75 μM CaCl2", "result": "highest activity"}, {"measurement": "mPTP Rat liver pIC50", "setting": "mPTP [1]", "result": 7.31}, {"measurement": "pIC50", "setting": "mPTP [2]", "result": 7.23}, {"measurement": "mPTP Rat brain pIC50", "setting": "mPTP [3]", "result": 7.75}]}
